Earlier results on 1 compound are cited in patent US5665379A, “Lipid particle forming matrix, preparation and use thereof” (priority 1990, dated 1997).

Molecules are shown by their SMILES.

On to `CCCCCCCCCCCCCCCC(=O)OC(CC(=O)[O-])C[N+](C)(C)C` (stereo not shown) [palmitoylcarnitine], for which the “Absorption enhancement in the gut (in words)” value is “acts as an absorption enhancer”.
